Results published in patent US11634443B2, “Treprostinil prodrugs” (United Therapeutics Corporation, priority 2019, dated 2023).
Read-outs that look alike come from different tables or passages of the source.

Experiments:
[1] = Plasma stability and formation of treprostinil, human plasma; assay type: in vitro ADME; conditions: for Formation of Treprostinil, Concentration: prodrug dosed at 1 μM
Procedure: (§1) Studies were carried out in mixed-gender human plasma male Sprague-Dawley rat plasma, and male Beagle dog plasma. All plasma was obtained from Bioreclamation and collected on K2EDTA. Plasma was adjusted to pH 7.4 prior to initiating the experiments. DMSO stocks were first prepared for the test articles. […] The vials were kept in a benchtop Thermomixer® for the duration of the experiment. […] Samples were stored at 4° C. until the end of the experiment. After the final time point was sampled, the plate was mixed and then centrifuged at 3000 rpm for 10 minutes.

[2] = target: T1, prostaglandin E2 (PGE2) receptor 2 (EP2) (Homo sapiens, UniProt P43116); test: EP2 receptor cAMP assay (agonist mode); assay type: cell-based; conditions: cAMP, cells overexpressing human EP2
T1 construct: expressed in transfected cells; host or cells: HEK293T
Procedure: (§3) Assay Buffer: • EP1 Calcium and DP1 cAMP Assays: HBSS plus 20 mM HEPES • EP2 and IP1 cAMP Assays: 1 mM IBMX in HBSS plus 20 mM HEPES
(§4) Cells were thawed from frozen cells and resuspended in assay buffer at desired concentrations. cAMP or Calcium assays were performed according to the manufacturer's protocol using Multiscreen™ TR-FRET cAMP 1.0 No Wash Assay Kit or Multiscreen™ Calcium 1.0 No Wash Kit.
(§5) Gas Cyclic AMP (cAMP) Assay: In agonist mode testing, cells were seeded in a 384-well plate at an appropriate density and then were treated with compounds and incubated at 37° C. for 20 minutes. The reaction was terminated by sequentially adding sequentially adding trFluor™ Eu-labeled cAMP and trFluor™ 650-labeled anti-cAMP antibody in lysis buffer. […] All testing wells contained 0.1% DMSO in the final concentrations.
(§6) Data in graphs are represented in Mean±SD. Dose-dependent responses were fitted with sigmoidal dose-response curves allowing variable slopes using GraphPad Prism version 6 (Graphpad Prism).
(§7) These studies used cell lines overexpressing either human IP, EP2 or DP1, or EP1 receptors, and following incubation with varying concentrations of compounds, cAMP levels were measured using Fluorescence Resonance Energy Transfer (FRET).

[3] = Stability and formation of treprostinil in simulated intestinal fluid; assay type: in vitro ADME; conditions: for Half-Life: SIF pH 6.8, 1 μM, 37° C.; for Formation of Treprostinil, Concentration: SIF, prodrug dosed at 1 μM
Procedure: Studies were carried out in simulated intestinal fluid (SIF). SIF was prepared by dissolving 6.8 g of KH2PO4 in 250 mL of water, mixing, and then adding 77 mL of 0.2 N NaOH and 750 mL of water. Pancreatin (10 g) was added, mixed, and the pH was adjusted to pH 6.8 with 10 N NaOH. DMSO stocks were first prepared for the test articles. Aliquots of the DMSO solutions were dosed into 0.4 mL of matrix, which had been pre-warmed to 37° C., at a final test article concentration of 1 μM. The vials were kept in a benchtop Thermomixer® for the duration of the experiment. A separate tube was dosed for each time point in each matrix. At the appropriate times (0, 15, 30, 60, and 120 minutes), 0.8 mL of acetonitrile (ACN) containing 1% formic acid and internal standard was added directly to a single tube. Samples were mixed and then immediately stored at 4° C. until the end of the experiment. After the final time point was sampled, the plate was mixed and then centrifuged at 3000 rpm for 10 minutes. Aliquots of the supernatant were removed, diluted 1:1 into distilled water containing internal standard, and analyzed by LC-MS/MS against calibration standards prepared in a matched matrix. All samples were analyzed for the dosed prodrugs as well as the drug, treprostinil. The test article concentration was compared to the concentration at time 0 to determine the percent of test article remaining at each time point. Half-lives were calculated using GraphPad software, fitting to a single-phase exponential decay equation.

[4] = target: T2, prostaglandin I2 (PGI2) receptor (IP) (Homo sapiens, UniProt P43119); test: IP receptor cAMP assay (agonist mode); assay type: cell-based; conditions: cAMP, cells overexpressing human IP
T2 construct: expressed in transfected cells; host or cells: CHO-K1
Procedure: as §3, §4, §5, §6, §7

[5] = Plasma stability and formation of treprostinil, rat plasma; assay type: in vitro ADME; conditions: for Formation of Treprostinil, Concentration: prodrug dosed at 1 μM; for Half-Life / Percent Remaining: 1 μM, 37° C.
Procedure: as §1

[6] = Hydrolysis of treprostinil prodrugs to treprostinil at pH 6, 7 and 8 and 40 C; assay type: physicochemical
From the text: Tables 26, 27 and 28 present data for hydrolysis of selected treprostinil prodrugs at pH 6, 7 and 8, respectively, and 40 C.

[7] = Plasma stability and formation of treprostinil, dog plasma; assay type: in vitro ADME; conditions: for Formation of Treprostinil, Concentration: prodrug dosed at 1 μM; for Half-Life / Percent Remaining: 1 μM, 37° C.
Procedure: as §1

[8] = target: T3, prostaglandin D2 (PGD2) receptor 1 (DP1) (Homo sapiens, UniProt Q13258); test: DP1 receptor cAMP assay (agonist mode); assay type: cell-based; conditions: cAMP, cells overexpressing human DP1
T3 construct: expressed in transfected cells; host or cells: HEK293T
T3 sequence (Q13258 1-359): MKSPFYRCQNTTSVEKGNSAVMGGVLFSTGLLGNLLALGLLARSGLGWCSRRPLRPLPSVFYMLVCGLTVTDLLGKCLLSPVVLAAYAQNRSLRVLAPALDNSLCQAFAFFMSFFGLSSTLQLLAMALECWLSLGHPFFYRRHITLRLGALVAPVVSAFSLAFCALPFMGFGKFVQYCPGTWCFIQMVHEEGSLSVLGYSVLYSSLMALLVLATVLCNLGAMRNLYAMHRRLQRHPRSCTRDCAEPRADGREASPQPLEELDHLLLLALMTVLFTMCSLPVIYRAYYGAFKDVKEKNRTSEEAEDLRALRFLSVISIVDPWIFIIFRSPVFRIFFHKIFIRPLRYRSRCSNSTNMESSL

[9] = Stability and formation of treprostinil in human cryopreserved hepatocytes
Procedure: (§2) Mixed-gender human cryopreserved hepatocytes, male Sprague-Dawley rat cryopreserved hepatocytes, and male Beagle dog cryopreserved hepatocytes were purchased from XenoTech. The hepatocytes were thawed and prepared according to the vendor's instructions, pooled into Krebs Henseleit buffer (KHB, pH 7.4), and kept on ice prior to the experiments. […] The final DMSO content in the incubation mixture was ≤0.1%. […] Aliquots of the test article were withdrawn (n=1) at 0, 15, 30, 60, and 120 minutes. […] Aliquots of 7-HC were withdrawn (n=1) at 0 and 15 minutes. The reaction was immediately terminated by adding two volumes of ice-cold acetonitrile (ACN) to the test article samples and three volumes of ACN containing internal standard to the positive control samples.

[10] = Stability and formation of treprostinil in rat cryopreserved hepatocytes
Procedure: as §2

[11] = microsomes
Procedure: (§8) Mixed-gender human liver microsomes, male Sprague-Dawley rat liver microsomes, and male Beagle dog liver microsomes were purchased from XenoTech. The reaction mixture, minus NADPH, was prepared as described below. […] An aliquot of the reaction mixture (without cofactor) was equilibrated in a shaking water bath at 37° C. for 5 minutes. The reaction was initiated by the addition of cofactor, and the mixture was incubated in a shaking water bath at 37° C. Aliquots (200 μL) were withdrawn at 0, 10, 20, 30, and 60 minutes. Test article samples were immediately combined with 400 μL of ice-cold acetonitrile (ACN) to terminate the reaction. […] The samples were then mixed and centrifuged to precipitate proteins. Aliquots of the supernatant were removed, diluted 1:1 into distilled water containing internal standard, and analyzed by LC-MS/MS against calibration standards prepared in a matched matrix. All samples were analyzed for the dosed prodrugs as well as the drug, treprostinil. The test article concentration was compared to the concentration at time 0 to determine the percent of test article remaining at each time point. Half-lives and clearance were calculated using GraphPad software, fitting to a single-phase exponential decay equation.
Liver Microsomes 0.5 mg/mL
Potassium Phosphate, pH 7.4 100 mM

[12] = Stability and formation of treprostinil in dog cryopreserved hepatocytes
Procedure: as §2

[13] = microsomes; remark: listed apart in the source
Procedure: as §8
Liver Microsomes 0.5 mg/mL
Potassium Phosphate, pH 7.4 100 mM

T2 sequence (P43119 whole entry): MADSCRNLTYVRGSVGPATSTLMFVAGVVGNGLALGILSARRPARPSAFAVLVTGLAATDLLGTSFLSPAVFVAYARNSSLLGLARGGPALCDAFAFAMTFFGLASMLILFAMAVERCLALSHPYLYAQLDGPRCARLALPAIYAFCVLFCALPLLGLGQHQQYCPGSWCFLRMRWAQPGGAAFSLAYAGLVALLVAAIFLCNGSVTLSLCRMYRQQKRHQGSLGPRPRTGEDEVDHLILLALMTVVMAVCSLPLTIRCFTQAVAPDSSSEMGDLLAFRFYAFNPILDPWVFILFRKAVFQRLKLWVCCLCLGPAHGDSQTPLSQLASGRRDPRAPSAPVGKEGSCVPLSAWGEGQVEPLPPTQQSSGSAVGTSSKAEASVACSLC
T1 sequence (P43116 whole entry): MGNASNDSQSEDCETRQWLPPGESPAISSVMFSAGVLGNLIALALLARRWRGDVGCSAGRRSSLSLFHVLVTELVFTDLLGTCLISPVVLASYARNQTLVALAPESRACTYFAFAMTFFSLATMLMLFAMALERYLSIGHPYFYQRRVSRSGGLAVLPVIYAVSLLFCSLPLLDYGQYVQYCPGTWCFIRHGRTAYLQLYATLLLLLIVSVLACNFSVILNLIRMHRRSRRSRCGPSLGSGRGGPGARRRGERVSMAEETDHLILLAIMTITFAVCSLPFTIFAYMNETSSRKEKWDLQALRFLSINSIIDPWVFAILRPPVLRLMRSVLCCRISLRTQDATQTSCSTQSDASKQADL

treprostinil diacetate [Prodrug LXXII]
Formation of Treprostinil, Concentration ([1]; 0 min): 0 µM
Half-Life ([1]; 1 μM, 37° C.): >2 h
Formation of Treprostinil, Concentration ([1]; 15 min): 0 µM
Formation of Treprostinil, Concentration ([1]; 30 min): 0 µM
Percent Remaining ([1]; 120 min, 1 μM, 37° C.): 86.5%
Formation of Treprostinil, Concentration ([1]; 120 min): 0 µM
Formation of Treprostinil, Concentration [1]: 0 µM
Activity at the EP2 receptor compared to treprostinil [2]: non-traditional dose response curve
Half-Life [3]: >2 h
Formation of Treprostinil, Concentration ([3]; 0 min): 0 µM
Formation of Treprostinil, Concentration ([3]; 15 min): 0 µM
Formation of Treprostinil, Concentration ([3]; 30 min): 0 µM
Formation of Treprostinil, Concentration ([3]; 60 min): 0 µM
Formation of Treprostinil, Concentration ([3]; 120 min): 0.0126 µM
Activity at the IP receptor compared to treprostinil [4]: inactive
Formation of Treprostinil, Concentration ([5]; 0 min): 0 µM
Half-Life [5]: >2 h
Formation of Treprostinil, Concentration ([5]; 60 mm): 0.00595 µM
Formation of Treprostinil, Concentration ([5]; 15 min): 0 µM
Formation of Treprostinil, Concentration ([5]; 30 min): 0 µM
Percent Remaining ([5]; 60 min): 83.6%
Percent Remaining ([5]; 120 min): 79.7%
Formation of Treprostinil, Concentration ([5]; 120 min): 0.0151 µM
Hydrolysis of prodrug to treprostinil, % Area, t = 1 week ([6]; pH 6, 40 C): 0.00 % Area
Hydrolysis of prodrug to treprostinil, % Area, t = 2 weeks ([6]; pH 6, 40 C): 0.00 % Area
Hydrolysis of prodrug to treprostinil, % Area, t = 3 weeks ([6]; pH 6, 40 C): 0.00 % Area
Hydrolysis of prodrug to treprostinil, % Area, t = 1 week ([6]; pH 7, 40 C): 0.00 % Area
Hydrolysis of prodrug to treprostinil, % Area, t = 2 weeks ([6]; pH 7, 40 C): 0.00 % Area
Hydrolysis of prodrug to treprostinil, % Area, t = 3 weeks ([6]; pH 7, 40 C): 0.00 % Area
Hydrolysis of prodrug to treprostinil, % Area, t = 1 week ([6]; pH 8, 40 C): 0.00 % Area
Hydrolysis of prodrug to treprostinil, % Area, t = 2 weeks ([6]; pH 8, 40 C): 0.00 % Area
Hydrolysis of prodrug to treprostinil, % Area, t = 3 weeks ([6]; pH 8, 40 C): 0.00 % Area
Formation of Treprostinil, Concentration ([7]; 0 min): 0 µM
Half-Life [7]: >2 h
Percent Remaining ([7]; 15 min): 96.7%
Formation of Treprostinil, Concentration ([7]; 15 min): 0 µM
Formation of Treprostinil, Concentration ([7]; 30 min): 0 µM
Percent Remaining ([7]; 120 min): 82.9%
Formation of Treprostinil, Concentration ([7]; 120 min): 0 µM
Formation of Treprostinil, Concentration [7]: 0 µM
Activity at the DP1 receptor compared to treprostinil [8]: several hundred-fold less active
Treprostinil Concentration, 0 min [9]: 0.00458 µM
Treprostinil Concentration, 15 min [9]: 0.562 µM
Treprostinil Concentration, 30 min [9]: 0.491 µM
Treprostinil Concentration, 60 min [9]: 0.433 µM
Treprostinil Concentration, 120 min [9]: 0.364 µM
Treprostinil Concentration, 0 min [10]: 0 µM
Treprostinil Concentration, 15 min [10]: 0.24 µM
Treprostinil Concentration, 30 min [10]: 0.301 µM
Treprostinil Concentration, 60 min [10]: 0.298 µM
Treprostinil Concentration, 120 min [10]: 0.274 µM
Half-Life [11]: <0.167 h
Treprostinil Concentration, 0 min [12]: 0.0636 µM
Treprostinil Concentration, 15 min [12]: 0.671 µM
Treprostinil Concentration, 30 min [12]: 0.541 µM
Treprostinil Concentration, 60 min [12]: 0.465 µM
Treprostinil Concentration, 120 min [12]: 0.401 µM
CLint ([12]; hepatocytes): >0.0308 mL/min/mg protein
Half-Life ([12]; hepatocytes): <0.25 h
Half-Life [13]: <0.167 h

treprostinil dicarbonate [Prodrug LXXI]
Half-Life ([1]; 1 μM, 37° C.): >2 h
Activity at the EP2 receptor compared to treprostinil [2]: inactive
Half-Life [3]: >2 h
Formation of Treprostinil, Concentration ([3]; 0 min): 0 µM
Formation of Treprostinil, Concentration ([3]; 15 min): 0 µM
Formation of Treprostinil, Concentration ([3]; 30 min): 0 µM
Formation of Treprostinil, Concentration ([3]; 60 min): 0 µM
Formation of Treprostinil, Concentration ([3]; 120 min): 0.0121 µM
Activity at the IP receptor compared to treprostinil [4]: inactive
Half-Life [5]: <0.25 h
Hydrolysis of prodrug to treprostinil, % Area, t = 1 week ([6]; pH 6, 40 C): 0.00 % Area
Hydrolysis of prodrug to treprostinil, % Area, t = 2 weeks ([6]; pH 6, 40 C): 0.00 % Area
Hydrolysis of prodrug to treprostinil, % Area, t = 3 weeks ([6]; pH 6, 40 C): 0.00 % Area
Hydrolysis of prodrug to treprostinil, % Area, t = 1 week ([6]; pH 7, 40 C): 0.00 % Area
Hydrolysis of prodrug to treprostinil, % Area, t = 2 weeks ([6]; pH 7, 40 C): 0.00 % Area
Hydrolysis of prodrug to treprostinil, % Area, t = 3 weeks ([6]; pH 7, 40 C): 0.00 % Area
Hydrolysis of prodrug to treprostinil, % Area, t = 1 week ([6]; pH 8, 40 C): 0.00 % Area
Hydrolysis of prodrug to treprostinil, % Area, t = 2 weeks ([6]; pH 8, 40 C): 0.00 % Area
Hydrolysis of prodrug to treprostinil, % Area, t = 3 weeks ([6]; pH 8, 40 C): 0.38 % Area
Half-Life [7]: >2 h
Treprostinil Concentration, 0 min [9]: 0 µM
Treprostinil Concentration, 15 min [9]: 0.118 µM
Treprostinil Concentration, 30 min [9]: 0.211 µM
Treprostinil Concentration, 60 min [9]: 0.273 µM
Treprostinil Concentration, 120 min [9]: 0.259 µM
Treprostinil Concentration, 0 min [10]: 0 µM
Treprostinil Concentration, 15 min [10]: 0.422 µM
Treprostinil Concentration, 30 min [10]: 0.403 µM
Treprostinil Concentration, 60 min [10]: 0.347 µM
Treprostinil Concentration, 120 min [10]: 0.292 µM
Treprostinil Concentration, 0 min [12]: 0.00293 µM
Treprostinil Concentration, 15 min [12]: 0.501 µM
Treprostinil Concentration, 30 min [12]: 0.408 µM
Treprostinil Concentration, 60 min [12]: 0.348 µM
Treprostinil Concentration, 120 min [12]: 0.303 µM
